Results taken from the NIST ThermoML archive (doi:10.1016/j.jct.2013.02.017).

Conditions: relaxation calorimetry - Quantum Design PPMS; for molar entropy: 101.33 kPa

O=P([O-])([O-])[O-].[Fe+3] [iron(III) phosphate]
Conditions	molar entropy [J/K/mol]
1 K, Crystal 2	0.001252
2 K, Crystal 2	0.01157
3 K, Crystal 2	0.0497
4 K, Crystal 2	0.1381
5 K, Crystal 2	0.2911
6 K, Crystal 2	0.5136
7 K, Crystal 2	0.8015
8 K, Crystal 2	1.143
9 K, Crystal 2	1.528
10 K, Crystal 2	1.948
11 K, Crystal 2	2.4
12 K, Crystal 2	2.878
13 K, Crystal 2	3.381
14 K, Crystal 2	3.904
15 K, Crystal 2	4.446
16 K, Crystal 2	5.012
17 K, Crystal 2	5.603
18 K, Crystal 2	6.223
19 K, Crystal 2	6.877
20 K, Crystal 2	7.545
25 K, Crystal 1	11.49
30 K, Crystal 1	14.26
35 K, Crystal 1	16.51
40 K, Crystal 1	18.7
45 K, Crystal 1	20.89
50 K, Crystal 1	23.09
55 K, Crystal 1	25.3
60 K, Crystal 1	27.52
65 K, Crystal 1	29.74
70 K, Crystal 1	31.97
75 K, Crystal 1	34.2
80 K, Crystal 1	36.44
85 K, Crystal 1	38.66
90 K, Crystal 1	40.88
95 K, Crystal 1	43.09
100 K, Crystal 1	45.3
110 K, Crystal 1	49.7
120 K, Crystal 1	54.04
130 K, Crystal 1	58.32
140 K, Crystal 1	62.54
150 K, Crystal 1	66.7
160 K, Crystal 1	70.79
170 K, Crystal 1	74.82
180 K, Crystal 1	78.8
190 K, Crystal 1	82.72
200 K, Crystal 1	86.59
210 K, Crystal 1	90.41
220 K, Crystal 1	94.19
230 K, Crystal 1	97.92
240 K, Crystal 1	101.61
250 K, Crystal 1	105.25
260 K, Crystal 1	108.86
270 K, Crystal 1	112.42
273.15 K, Crystal 1	113.53
280 K, Crystal 1	115.93
290 K, Crystal 1	119.41
298.15 K, Crystal 1	122.21
300 K, Crystal 1	122.84

Conditions	Triple point temperature [K]
Crystal 2	25
